Values belong to the compound of their own block, whether it stands above or below them.
Tests used:
Cerebellum [1] = test: Drug uptake in conscious Sprague-Dawley rat cerebellum at < 10 nmol/kg, tail-vein injections at 15 mins in presence of 2 mg/kg, ip L-deprenyl inhibitor for 1 hr; type: ADME, organism-based; design: dose 2 mg/kg, route intraperitoneal; details: in vivo, 0.25 h
Brain [2] = test: Drug uptake in conscious Sprague-Dawley rat brain region at < 10 nmol/kg, tail-vein injections at 15 mins in presence of 2 mg/kg, ip L-deprenyl inhibitor for 1 hr; type: ADME, organism-based; design: dose 2 mg/kg, route intraperitoneal; details: in vivo, 0.25 h
Striatum [3] = test: Drug uptake in conscious Sprague-Dawley rat striatum at < 10 nmol/kg, tail-vein injections at 40 mins in presence of 2 mg/kg, ip L-deprenyl inhibitor for 1 hr; type: ADME, organism-based; design: dose 2 mg/kg, route intraperitoneal; details: in vivo
Cortex [4] = test: Drug uptake in conscious Sprague-Dawley rat cortex at < 10 nmol/kg, tail-vein injections at 40 mins in presence of 2 mg/kg, ip L-deprenyl inhibitor for 1 hr; type: ADME, organism-based; design: dose 2 mg/kg, route intraperitoneal; details: in vivo
Cerebellum [5] = test: Drug uptake in conscious Sprague-Dawley rat cerebellum at < 10 nmol/kg, tail-vein injections at 40 mins in presence of 2 mg/kg, ip L-deprenyl inhibitor for 1 hr; type: ADME, organism-based; design: dose 2 mg/kg, route intraperitoneal; details: in vivo
Brain [6] = test: Drug uptake in conscious Sprague-Dawley rat brain region at < 10 nmol/kg, tail-vein injections at 40 mins in presence of 2 mg/kg, ip L-deprenyl inhibitor for 1 hr; type: ADME, organism-based; design: dose 2 mg/kg, route intraperitoneal; details: in vivo
[7] = Plasma concentration in conscious Sprague-Dawley rat plasma assessed as radiotracer at < 10 nmol/kg, tail-vein injections at 2 mins; type: ADME; details: iv, read-out: Stability
[8] = Plasma concentration in conscious Sprague-Dawley rat plasma assessed as radiotracer at < 10 nmol/kg, tail-vein injections at 40 mins; type: ADME, cell-free; details: iv, read-out: Stability
Bone [9] = test: Drug metabolism in conscious Sprague-Dawley rat bone assessed as parent drug level at < 10 nmol/kg, tail-vein injections at 2 mins; type: ADME, tissue-based, Bone element; details: in vivo, iv
Bone [10] = test: Drug metabolism in conscious Sprague-Dawley rat bone assessed as parent drug level at < 10 nmol/kg, tail-vein injections at 40 mins; type: ADME, tissue-based, Bone element; details: in vivo, iv
Striatum [11] = test: Drug uptake in conscious Sprague-Dawley rat striatum at < 10 nmol/kg, tail-vein injections at 2 mins; type: ADME, tissue-based; details: in vivo, iv
Cortex [12] = test: Drug uptake in conscious Sprague-Dawley rat cortex at < 10 nmol/kg, tail-vein injections at 2 mins; type: ADME, tissue-based; details: in vivo, iv
Cerebellum [13] = test: Drug uptake in conscious Sprague-Dawley rat cerebellum at < 10 nmol/kg, tail-vein injections at 2 mins; type: ADME, tissue-based; details: in vivo, iv
Brain [14] = test: Drug uptake in conscious Sprague-Dawley rat brain region at < 10 nmol/kg, tail-vein injections at 2 mins; type: ADME, tissue-based; details: in vivo, iv
Striatum [15] = test: Drug uptake in conscious Sprague-Dawley rat striatum at < 10 nmol/kg, tail-vein injections at 15 mins; type: ADME, tissue-based; details: in vivo, iv, 0.25 h
Cortex [16] = test: Drug uptake in conscious Sprague-Dawley rat cortex at < 10 nmol/kg, tail-vein injections at 15 mins; type: ADME, tissue-based; details: in vivo, iv, 0.25 h
Cerebellum [17] = test: Drug uptake in conscious Sprague-Dawley rat cerebellum at < 10 nmol/kg, tail-vein injections at 15 mins; type: ADME, tissue-based; details: in vivo, iv, 0.25 h
Brain [18] = test: Drug uptake in conscious Sprague-Dawley rat brain region at < 10 nmol/kg, tail-vein injections at 15 mins; type: ADME, tissue-based; details: in vivo, iv, 0.25 h
Striatum [19] = test: Drug uptake in conscious Sprague-Dawley rat striatum at < 10 nmol/kg, tail-vein injections at 40 mins; type: ADME, tissue-based; details: in vivo, iv
Cortex [20] = test: Drug uptake in conscious Sprague-Dawley rat cortex at < 10 nmol/kg, tail-vein injections at 40 mins; type: ADME, tissue-based; details: in vivo, iv
Cerebellum [21] = test: Drug uptake in conscious Sprague-Dawley rat cerebellum at < 10 nmol/kg, tail-vein injections at 40 mins; type: ADME, tissue-based; details: in vivo, iv
Brain [22] = test: Drug uptake in conscious Sprague-Dawley rat brain region at < 10 nmol/kg, tail-vein injections at 40 mins; type: ADME, tissue-based; details: in vivo, iv
Striatum [23] = test: Drug uptake in conscious Sprague-Dawley rat striatum at < 10 nmol/kg, tail-vein injections at 15 mins in presence of 2 mg/kg, ip L-deprenyl inhibitor for 1 hr; type: ADME, organism-based; design: dose 2 mg/kg, route intraperitoneal; details: in vivo, 0.25 h
Cortex [24] = test: Drug uptake in conscious Sprague-Dawley rat cortex at < 10 nmol/kg, tail-vein injections at 15 mins in presence of 2 mg/kg, ip L-deprenyl inhibitor for 1 hr; type: ADME, organism-based; design: dose 2 mg/kg, route intraperitoneal; details: in vivo, 0.25 h
[25] = molecular target: T1, Amine oxidase [flavin-containing] B (Homo sapiens, UniProt P27338); test: Inhibition of human recombinant MAO-B by luminescence analysis
T1 sequence (P27338 whole entry): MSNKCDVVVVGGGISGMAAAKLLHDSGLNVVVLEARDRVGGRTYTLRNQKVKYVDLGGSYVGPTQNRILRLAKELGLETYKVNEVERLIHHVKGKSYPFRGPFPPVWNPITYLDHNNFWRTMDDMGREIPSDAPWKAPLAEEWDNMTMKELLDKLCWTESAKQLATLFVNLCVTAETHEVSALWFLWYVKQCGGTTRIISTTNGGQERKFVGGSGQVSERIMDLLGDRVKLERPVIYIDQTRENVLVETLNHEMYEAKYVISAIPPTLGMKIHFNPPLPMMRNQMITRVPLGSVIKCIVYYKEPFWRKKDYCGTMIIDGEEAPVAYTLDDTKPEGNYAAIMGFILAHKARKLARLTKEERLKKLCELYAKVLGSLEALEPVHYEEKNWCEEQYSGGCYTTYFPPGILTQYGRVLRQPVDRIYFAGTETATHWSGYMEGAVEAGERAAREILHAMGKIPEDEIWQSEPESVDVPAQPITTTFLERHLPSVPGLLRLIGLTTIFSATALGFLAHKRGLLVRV

Homo sapiens = species: Homo sapiens; test: Selectivity index, ratio of IC50 for human recombinant MAO-B to IC50 for human recombinant MAO-A
[26] = n-Octanol-phosphate buffered saline distribution coefficient, log D of the compound at pH 7.4 by shake flask method; type: physicochemical

SUV (Cerebellum [1]): 0.5
SUV (Brain [2]): 0.5
SUV (Striatum [3]): 0.2
SUV (Cortex [4]): 0.2
SUV (Cerebellum [5]): 0.2
SUV (Brain [6]): 0.2
remaining at 2 min [7]: 90%
remaining at 40 min [8]: 33%
SUV (Bone [9]): 0.45
SUV (Bone [10]): 3.1
SUV (Striatum [11]): 1.7
SUV (Cortex [12]): 1.7
SUV (Cerebellum [13]): 1.7
SUV (Brain [14]): 1.7
SUV (Striatum [15]): 0.51
SUV (Cortex [16]): 0.51
SUV (Cerebellum [17]): 0.51
SUV (Brain [18]): 0.51
SUV (Striatum [19]): 0.19
SUV (Cortex [20]): 0.19
SUV (Cerebellum [21]): 0.19
SUV (Brain [22]): 0.19
SUV (Striatum [23]): 0.5
SUV (Cortex [24]): 0.5
SMILES: COC[C@@H]1CN(c2noc3cc(OCCC[18F])ccc23)C(=O)O1

IC50 [25]: 330 nM
Ratio IC50 (Homo sapiens): 6
logD [26]: 2.6
SMILES: COC[C@@H]1CN(c2noc3cc(OCCCF)ccc23)C(=O)O1

IC50 [25]: 47 nM
Ratio IC50 (Homo sapiens): 4680
logD [26]: 3.34
SMILES: COC[C@@H]1CN(c2noc3cc(OCCCC(F)(F)F)ccc23)C(=O)O1

More lines, now with the values behind:

SMILES: COC[C@@H]1CN(c2noc3cc(OCCCCF)ccc23)C(=O)O1
IC50 [25]: 120 nM
Ratio IC50 (Homo sapiens): 54

SMILES: COC[C@@H]1CN(c2noc3cc(OCCCCCF)ccc23)C(=O)O1
IC50 [25]: 110 nM
Ratio IC50 (Homo sapiens): 7730
